According to patent US20130204033A1, “ANTIPROLIFERATIVE COMPOUNDS, CONJUGATES THEREOF, METHODS THEREFOR, AND USES THEREOF” (Medarex, Inc., priority 2009, published 2013):
Like-named read-outs stand apart in the source and are kept apart here.

Experiments:
Type in all cases: cell-based, human
[1] = test system: HCT-15; assay: 3H thymidine proliferation assay, HCT-15
Experimental: (§1) This example generally describes the procedures used to assay the antiproliferative activity of compounds of this invention or their conjugates. Human tumor cell lines were obtained from the American Type Culture Collection (ATCC), P.O. Box 1549, Manassas, Va. 20108, USA, and cultured according to instruction from the ATCC. Cells were seeded at 1.0×10^3 or 1.0×10^4 cells/well in 96-well plates for 3 h for ATP assays or ^3H thymidine assays, respectively. 1:3 serial dilutions of free (unconjugated) compounds or their conjugates were added to the wells. Plates were allowed to incubate for 24 to 72 h. The ^3H thymidine plates were pulsed with 1.0 μCi of ^3H-thymidine per well for the last 24 hours of the total incubation period, harvested, and read on a Top Count Scintillation Counter (Packard Instruments, Meriden, Conn.). ATP levels in the ATP plates were measured using the […]-GLO® Luminescent Cell Viability kit following the manufacturer's manual and read on a GLOMAX® 20/20 luminometer (both from Promega, Madison, Wis., USA). The EC50 values—the concentration at which an agent inhibits or reduces cell proliferation by 50% —were determined using PRISM™ software, version 4.0 (GraphPad Software, La Jolla, Calif., USA).
(§2) Using the ^3H thymidine or the ATP luminescence assay, or both, the activities of compounds of this invention were assayed against the following cancer cell lines: HCT-15 (colorectal cancer, multi-drug resistant (MDR)); Hep3B (liver cancer); LNCaP (prostate cancer, androgen receptor positive (AR^+)); MDA-MB-231 (breast cancer, estrogen receptor, progesterone receptor, and Her2 negative (triple negative)); A2058 (melanoma); U-87 MG (glioblastoma); NCI-H460 (NSCLC); A549 (NSCLC); HPAC (pancreatic cancer, primary); PC3 (prostate cancer, AR); BT474 (breast cancer, Her2 highly positive (Her2hi)); SKOV3 (ovarian cancer, Her2hi); 786-O (renal cancer); UO-31 (renal cancer, MDR); NCI-H740 (SCLC); DMS53 (SCLC); SK-BR3 (breast cancer, Her2hi); ZR-75 (breast cancer, estrogen receptor positive); OVCAR3 (ovarian cancer); HL-60 (APL); OVCAR8/Adr (ovarian cancer, MDR); CEM-Cl (ALL); Nomo-1 (AML); RPMI-8226 (MM)); Raji (lymphoma); SW-480 (colorectal cancer, metastatic); SW-620 (colorectal cancer); and H226 (lung cancer). (Not all compounds were assayed against all cell lines.)
(§3) Table 2 provides the data for proliferation assays using the ^3H thymidine method, with an incubation period of 72 h.

[2] = test system: A2058; assay: 3H thymidine proliferation assay, A2058; settings: 3H thymidine method, 72 h incubation
Experimental: as §1, §2, §3

[3] = test system: UO-31; assay: 3H thymidine proliferation assay, UO-31
Experimental: as §1, §2, §3

[4] = test system: H740; assay: 3H thymidine proliferation assay, H740
Experimental: as §1, §2, §3

[5] = test system: DMS53; assay: 3H thymidine proliferation assay, DMS53
Experimental: as §1, §2, §3

[6] = test system: ZR-75; assay: 3H thymidine proliferation assay, ZR-75
Experimental: as §1, §2, §3

[7] = test system: OVCAR3; assay: 3H thymidine proliferation assay, OVCAR3
Experimental: as §1, §2, §3

[8] = test system: CEM-C1; assay: 3H thymidine proliferation assay, CEM-C1
Experimental: as §1, §2, §3

[9] = test system: Nomo-1; assay: 3H thymidine proliferation assay, Nomo-1
Experimental: as §1, §2, §3

[10] = test system: RPMI-8226; assay: 3H thymidine proliferation assay, RPMI-8226
Experimental: as §1, §2, §3

[11] = test system: Raji; assay: 3H thymidine proliferation assay, Raji
Experimental: as §1, §2, §3

[12] = test system: Hep3B; assay: ATP luminescence proliferation assay, Hep3B
Experimental: as §1, §2
(§4) Table 3 provides the data for the ATP luminescence proliferation assays, with an incubation period of 48, 72, or 96 h, as noted.

[13] = test system: A2058; assay: ATP luminescence proliferation assay, A2058
Experimental: as §1, §2, §4

[14] = test system: U-87 MG; assay: ATP luminescence proliferation assay, U-87 MG
Experimental: as §1, §2, §4

[15] = test system: PC3; assay: ATP luminescence proliferation assay, PC3
Experimental: as §1, §2, §4

[16] = test system: DMS53; assay: ATP luminescence proliferation assay, DMS53
Experimental: as §1, §2, §4

[17] = test system: SK-BR3; assay: ATP luminescence proliferation assay, SK-BR3
Experimental: as §1, §2, §4

[18] = test system: OVCAR3; assay: ATP luminescence proliferation assay, OVCAR3
Experimental: as §1, §2, §4

[19] = test system: Raji; assay: ATP luminescence proliferation assay, Raji
Experimental: as §1, §2, §4

[20] = Homo sapiens, HCT-15, read-out: EC50, HCT-15, 3H thymidine method, 72 h incubation
[21] = Homo sapiens, UO-31, read-out: EC50, UO-31, 3H thymidine method, 72 h incubation
[22] = Homo sapiens, read-out: EC50, H740, 3H thymidine method, 72 h incubation
[23] = Homo sapiens, DMS-53, read-out: EC50, DMS53, 3H thymidine method, 72 h incubation
[24] = Homo sapiens, OVCAR-3, read-out: EC50, OVCAR3, 3H thymidine method, 72 h incubation
[25] = Homo sapiens, CEM/C1, read-out: EC50, CEM-C1, 3H thymidine method, 72 h incubation
[26] = Homo sapiens, NOMO-1, read-out: EC50, Nomo-1, 3H thymidine method, 72 h incubation
[27] = Homo sapiens, RPMI-8226, read-out: EC50, RPMI-8226, 3H thymidine method, 72 h incubation
[28] = Homo sapiens, Raji, read-out: EC50, Raji, 3H thymidine method, 72 h incubation
[29] = Homo sapiens, 48 h, read-out: EC50 Hep3B (48 h), ATP luminescence, Hep3B, 48 h incubation
[30] = Homo sapiens, 72 h, read-out: EC50 U-87 MG (72 h), ATP luminescence, U-87 MG, 72 h incubation
[31] = Homo sapiens, PC-3, 48 h, read-out: EC50 PC3 (48 h), ATP luminescence, PC3, 48 h incubation
[32] = Homo sapiens, DMS-53, 48 h, read-out: EC50 DMS53 (48 h), ATP luminescence, DMS53, 48 h incubation
[33] = Homo sapiens, SK-BR-3, 48 h, read-out: EC50 SK-BR3 (48 h), ATP luminescence, SK-BR3, 48 h incubation
[34] = Homo sapiens, OVCAR-3, 48 h, read-out: EC50 OVCAR3 (48 h), ATP luminescence, OVCAR3, 48 h incubation
[35] = Homo sapiens, 72 h, read-out: EC50 Raji (72 h), ATP luminescence, Raji, 72 h incubation
[36] = 3H thymidine method, 72 h incubation, read-out: EC50, HCT-15
[37] = 3H thymidine method, 72 h incubation, read-out: EC50, UO-31
[38] = 3H thymidine method, 72 h incubation, read-out: EC50, H740
[39] = 3H thymidine method, 72 h incubation, read-out: EC50, DMS53
[40] = 3H thymidine method, 72 h incubation, read-out: EC50, ZR-75
[41] = 3H thymidine method, 72 h incubation, read-out: EC50, OVCAR3
[42] = 3H thymidine method, 72 h incubation, read-out: EC50, CEM-C1
[43] = 3H thymidine method, 72 h incubation, read-out: EC50, Nomo-1
[44] = 3H thymidine method, 72 h incubation, read-out: EC50, RPMI-8226
[45] = 3H thymidine method, 72 h incubation, read-out: EC50, Raji
[46] = ATP luminescence, A2058, 48 h incubation, read-out: EC50 A2058 (48 h)
[47] = ATP luminescence, 72 h incubation, read-out: EC50 U-87 MG (72 h)
[48] = ATP luminescence, PC3, 48 h incubation, read-out: EC50 PC3 (48 h)
[49] = ATP luminescence, DMS53, 48 h incubation, read-out: EC50 DMS53 (48 h)
[50] = ATP luminescence, SK-BR3, 48 h incubation, read-out: EC50 SK-BR3 (48 h)
[51] = ATP luminescence, OVCAR3, 48 h incubation, read-out: EC50 OVCAR3 (48 h)
[52] = ATP luminescence, 72 h incubation, read-out: EC50 Raji (72 h)

SMILES: CC[C@H](C)[C@H](NC(=O)[C@H]1CCCCN1C)C(=O)N(COC(=O)CC(C)C)[C@H](C[C@@H](OC(C)=O)c1nc(C(=O)N[C@@H](Cc2ccc(N)cc2)CC(C)C(=O)O)cs1)C(C)C (some centres unmarked) [Compound 54]
- EC50 [1, 20]: 0.44 nM
- EC50 ([2]; Homo sapiens, A2058): 0.64 nM
- EC50 [3, 21]: 1.3 nM
- EC50 [4, 22]: 10 nM
- EC50 [5, 23]: 2 nM
- EC50 ([6]; Homo sapiens, ZR75, read-out: EC50, ZR-75, 3H thymidine method, 72 h incubation): 2.2 nM
- EC50 [7, 24]: 3.9 nM
- EC50 [8, 25]: 0.38 nM
- EC50 [9, 26]: 0.77 nM
- EC50 [10, 27]: 0.36 nM
- EC50 [11, 28]: 0.2 nM
- EC50 [12, 29]: 1.5 nM
- EC50 ([13]; Homo sapiens, A2058, 72 h, read-out: EC50 A2058 (72 h), ATP luminescence, A2058, 72 h incubation): 1.4 nM
- EC50 [14, 30]: 1.6 nM
- EC50 [15, 31]: 3.1 nM
- EC50 [16, 32]: 7.9 nM
- EC50 [17, 33]: 6.2 nM
- EC50 [18, 34]: > 100 nM
- EC50 [19, 35]: 1.2 nM

SMILES: CC[C@H](C)[C@H](NC(=O)[C@H]1CCCCN1C)C(=O)N(C)[C@H](C[C@@H](OC)c1nc(C(=O)NC(Cc2ccccc2)C[C@H](C)C(=O)O)cs1)C(C)C (some centres unmarked) [Compound 15]
- EC50 [1, 20]: 67 nM
- EC50 ([2]; Homo sapiens, A2058): 1.6 nM
- EC50 [3, 21]: 15 nM
- EC50 [4, 22]: 2.3 nM
- EC50 [5, 23]: 37 nM
- EC50 [7, 24]: > 100 nM
- EC50 [8, 25]: 0.93 nM
- EC50 [9, 26]: 2.3 nM
- EC50 [10, 27]: 3.3 nM
- EC50 [11, 28]: 0.47 nM
- EC50 [12, 29]: 6.3 nM
- EC50 ([13]; Homo sapiens, A2058, 48 h, read-out: EC50 A2058 (48 h), ATP luminescence, A2058, 48 h incubation): 3.5 nM
- EC50 [14, 30]: 8.6 nM
- EC50 [15, 31]: > 100 nM
- EC50 [16, 32]: 32 nM
- EC50 [17, 33]: 3.9 nM
- EC50 [18, 34]: > 100 nM
- EC50 [19, 35]: 2.5 nM

SMILES: CC[C@H](C)[C@H](NC(=O)[C@H]1CCCCN1C)C(=O)N(C)[C@H](C[C@@H](OC)c1nc(C(=O)N[C@@H](Cc2ccccc2)C(=O)OC)cs1)C(C)C [Compound 16]
- EC50 [1, 36]: 284 nM
- EC50 [2]: > 100 nM
- EC50 [3, 37]: > 100 nM
- EC50 [4, 38]: > 100 nM
- EC50 [5, 39]: > 100 nM
- EC50 [6, 40]: > 100 nM
- EC50 [7, 41]: > 100 nM
- EC50 [8, 42]: 11 nM
- EC50 [9, 43]: 1.8 nM
- EC50 [10, 44]: 22 nM
- EC50 [11, 45]: 28 nM
- EC50 [13, 46]: 30 nM
- EC50 [14, 47]: > 100 nM
- EC50 [15, 48]: > 100 nM
- EC50 [16, 49]: 50 nM
- EC50 [17, 50]: 6.6 nM
- EC50 [18, 51]: > 100 nM
- EC50 [19, 52]: 3 nM

SMILES: CC[C@H](C)[C@H](NC(=O)[C@H]1CCCCN1C)C(=O)N(C)[C@H](C[C@@H](OC(C)=O)c1nc(C(=O)N[C@@H](Cc2ccc(N)cc2)C(=O)O)cs1)C(C)C [Compound 56]
- EC50 [1, 36]: 2480 nM
- EC50 [2]: > 100 nM
- EC50 [3, 37]: > 100 nM
- EC50 [4, 38]: > 100 nM
- EC50 [5, 39]: > 100 nM
- EC50 [6, 40]: > 100 nM
- EC50 [7, 41]: > 100 nM
- EC50 [8, 42]: > 100 nM
- EC50 [9, 43]: > 100 nM
- EC50 [10, 44]: > 100 nM
- EC50 [11, 45]: > 100 nM
- EC50 ([12]; ATP luminescence, 48 h incubation, read-out: EC50 Hep3B (48 h)): > 100 nM
- EC50 [13, 46]: > 100 nM
- EC50 [14, 47]: > 100 nM
- EC50 [15, 48]: > 100 nM
- EC50 [16, 49]: > 100 nM
- EC50 [17, 50]: > 100 nM
- EC50 [18, 51]: > 100 nM
- EC50 [19, 52]: 24 nM
